According to patent publication US20090075397A1, “Method for characterizing sugar-binding interactions of biomolecules” (Academia Sinica, priority 2007, published 2009):

T1: lectin UEA-1 (Ulex europaeus, UniProt P22972)
T1 construct: purchased EY Labs, Inc
T1 sequence (P22972 1-243): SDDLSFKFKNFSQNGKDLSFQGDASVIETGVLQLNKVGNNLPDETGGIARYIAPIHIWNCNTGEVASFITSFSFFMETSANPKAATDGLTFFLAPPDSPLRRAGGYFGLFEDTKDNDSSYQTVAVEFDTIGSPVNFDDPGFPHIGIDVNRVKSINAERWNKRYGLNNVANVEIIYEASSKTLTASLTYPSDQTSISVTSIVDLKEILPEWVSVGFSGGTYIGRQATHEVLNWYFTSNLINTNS

B1: PNA: lectin of Arachis hypogaea (protein, UniProt P02872 24-273, looked up)
Galactose-binding lectin: AETVSFNFNSFSEGNPAINFQGDVTVLSNGNIQLTNLNKVNSVGRVLYAMPVRIWSSATGNVASFLTSFSFEMKDIKDYDPADGIIFFIAPEDTQIPAGSIGGGTLGVSDTKGAGHFVGVEFDTYSNSEYNDPPTDHVGIDVNSVDSVKTVPWNSVSGAVVKVTVIYDSSTKTLSVAVTNDNGDITTIAQVVDLKAKLPERVKFGFSASGSLGGRQIHLIRSWSFTSTLITTTRRSIDNNEKKIMNMASA

Tests used:
[1] = system: recombinant hemagglutinin (HA) of H1N1 (A/Beijing/262/95); assay type: binding, influenza virus H1N1 (A/Beijing/262/95)
[2] = system: H1N1 virus (A/Beijing/262/95); assay type: binding, influenza virus H1N1 (A/Beijing/262/95); details: virus particles on acceptor beads, FIG. 5A
[3] = system: H3N2 virus (A/Panama/2007/99); assay type: binding, influenza virus H3N2 (A/Panama/2007/99); details: virus particles on acceptor beads, FIG. 5B
[4] = ALPHAScreen profiling of lectin binding specificities with biotinylated PAA-sugars; details: for Binding specificities: Table 2 (SI), examined lectins
anti-Lex antibody = test: ALPHAScreen sugar/protein binding assay, sugar on donor beads, antibody on acceptor beads; details: sugar linked to streptavidin donor beads
lectin UEA-1 = biological target: T1, lectin UEA-1; test: ALPHAScreen sugar/protein binding assay, sugar on donor beads, lectin on acceptor beads; details: sugar linked to streptavidin donor beads, UEA-1 on acceptor beads

Row | Molecule | recognition by HA of H1N1 (A/Beijing/262/95) [1] | recognition by H1N1 virus (A/Beijing/262/95) [2] | also measured
1 | (NeuAcα2-8)5-6 [Glycan No. 52] | do not recognize | do not recognize | recognition by H3N2 virus (A/Panama/2007/99) [3]: accepted
2 | CC(=O)N[C@H]1C(O)O[C@H](CO[C@]2(C(=O)O)C[C@H](O)[C@@H](NC(=O)CO)[C@H]([C@H](O)[C@H](O)CO)O2)[C@H](O)[C@@H]1O (stereo partly drawn) [Glycan No. 22, NeuGcα2-6GalNAc] | do not recognize | do not recognize | 
3 | CC(=O)N[C@H]1[C@H]([C@H](O)[C@H](O)CO)O[C@@](O[C@H]2[C@@H](O)[C@@H](CO)OC(O)[C@@H]2NC(C)=O)(C(=O)O)C[C@@H]1O (stereo partly drawn) [Glycan No. 27, NeuAcα2-3GalNAc] | do not recognize | do not recognize | 
4 | SBA: lectin of Glycine max |  |  | Binding specificities [4]: GalNAc/Gal
5 | Galβ1-4(Fucα1-3)GlcNAc (Le^x) [Glycan No. 33] |  |  | binding signal with anti-Lex antibody (anti-Lex antibody): able to produce signals
6 | α-L-Fuc [Glycan No. 6] |  |  | binding signal with lectin UEA-1 (lectin UEA-1): able to produce signals
7 | B1 |  |  | Binding specificities [4]: Galβ1-3GalNAc; lectin sugar binding specificity ([4]; profiled with more than 50 biotinylated PAA-sugars, FIG. 2): binds to the Galb1-3GalNAc structure specifically
